Assay: xn = mol fraction of the nth substance listed
Settings: for mass density / viscosity: 100 kPa, Liquid; for mass density: Vibrating tube method; for surface tension liquid-gas: Drop volume

CC12CC3CC(C1)CC(C)(C3)C2 [1,3-dimethyladamantane] + CCCCCCCO
Settings	mass density [kg/m3]	surface tension liquid-gas [mN/m]	viscosity [mPa·s]
293.15 K, x2 = 0	901.58	–	3.764
293.15 K, x2 = 0.1001	895.5	–	3.692
293.15 K, x2 = 0.199	889.11	–	3.788
293.15 K, x2 = 0.2998	882.35	–	3.972
293.15 K, x2 = 0.3997	875.32	–	4.181
293.15 K, x2 = 0.4997	867.82	–	4.522
293.15 K, x2 = 0.6002	859.93	–	4.92
293.15 K, x2 = 0.7	851.41	–	5.419
293.15 K, x2 = 0.7996	842.45	–	5.924
293.15 K, x2 = 0.8999	832.71	–	6.447
298.15 K, x2 = 0	898.04	27.88	3.345
298.15 K, x2 = 0.1001	891.87	27.82	3.271
298.15 K, x2 = 0.199	885.48	–	3.342
298.15 K, x2 = 0.1997	–	27.69	–
298.15 K, x2 = 0.2998	878.72	27.48	3.475
298.15 K, x2 = 0.3997	871.68	27.35	3.686
298.15 K, x2 = 0.4997	864.19	27.15	3.909
298.15 K, x2 = 0.6002	856.3	27.02	4.218
298.15 K, x2 = 0.7	847.82	26.79	4.611
298.15 K, x2 = 0.7996	838.88	26.56	5.028
298.15 K, x2 = 0.8999	829.21	26.36	5.454
303.15 K, x2 = 0	894.48	–	3.004
303.15 K, x2 = 0.1001	888.23	–	2.913
303.15 K, x2 = 0.199	881.84	–	2.963
303.15 K, x2 = 0.2998	875.06	–	3.066
303.15 K, x2 = 0.3997	868.01	–	3.238
303.15 K, x2 = 0.4997	860.52	–	3.414
303.15 K, x2 = 0.6002	852.65	–	3.657
303.15 K, x2 = 0.7	844.21	–	3.967
303.15 K, x2 = 0.7996	835.28	–	4.304
303.15 K, x2 = 0.8999	825.66	–	4.649
308.15 K, x2 = 0	890.92	–	2.711
308.15 K, x2 = 0.1001	884.58	–	2.609
308.15 K, x2 = 0.199	878.15	–	2.642
308.15 K, x2 = 0.2998	871.37	–	2.721
308.15 K, x2 = 0.3997	864.33	–	2.862
308.15 K, x2 = 0.4997	856.84	–	3
308.15 K, x2 = 0.6002	848.97	–	3.194
308.15 K, x2 = 0.7	840.56	–	3.439
308.15 K, x2 = 0.7996	831.66	–	3.711
308.15 K, x2 = 0.8999	822.07	–	3.992
313.15 K, x2 = 0	887.35	–	2.458
313.15 K, x2 = 0.1001	880.92	–	2.347
313.15 K, x2 = 0.199	874.46	–	2.366
313.15 K, x2 = 0.2998	867.67	–	2.427
313.15 K, x2 = 0.3997	860.62	–	2.542
313.15 K, x2 = 0.4997	853.13	–	2.653
313.15 K, x2 = 0.6002	845.27	–	2.807
313.15 K, x2 = 0.7	836.88	–	3.001
313.15 K, x2 = 0.7996	828.01	–	3.22
313.15 K, x2 = 0.8999	818.46	–	3.45
318.15 K, x2 = 0	883.77	–	2.237
318.15 K, x2 = 0.1001	877.24	–	2.121
318.15 K, x2 = 0.199	870.75	–	2.129
318.15 K, x2 = 0.2998	863.95	–	2.175
318.15 K, x2 = 0.3997	856.89	–	2.269
318.15 K, x2 = 0.4997	849.4	–	2.359
318.15 K, x2 = 0.6002	841.54	–	2.481
318.15 K, x2 = 0.7	833.18	–	2.636
318.15 K, x2 = 0.7996	824.33	–	2.813
318.15 K, x2 = 0.8999	814.8	–	3.002
323.15 K, x2 = 0	880.19	–	2.045
323.15 K, x2 = 0.1001	873.55	–	1.925
323.15 K, x2 = 0.199	867.02	–	1.925
323.15 K, x2 = 0.2998	860.2	–	1.958
323.15 K, x2 = 0.3997	853.14	–	2.035
323.15 K, x2 = 0.4997	845.65	–	2.107
323.15 K, x2 = 0.6002	837.79	–	2.205
323.15 K, x2 = 0.7	829.46	–	2.329
323.15 K, x2 = 0.7996	820.62	–	2.472
323.15 K, x2 = 0.8999	811.12	–	2.626
328.15 K, x2 = 0	876.6	–	1.876
328.15 K, x2 = 0.1001	869.84	–	1.754
328.15 K, x2 = 0.199	863.27	–	1.745
328.15 K, x2 = 0.2998	856.43	–	1.769
328.15 K, x2 = 0.3997	849.36	–	1.833
328.15 K, x2 = 0.4997	841.86	–	1.891
328.15 K, x2 = 0.6002	834.01	–	1.97
328.15 K, x2 = 0.7	825.68	–	2.069
328.15 K, x2 = 0.7996	816.87	–	2.184
328.15 K, x2 = 0.8999	807.4	–	2.311
333.15 K, x2 = 0	873.01	–	1.728
333.15 K, x2 = 0.1001	866.11	–	1.603
333.15 K, x2 = 0.199	859.5	–	1.589
333.15 K, x2 = 0.2998	852.63	–	1.605
333.15 K, x2 = 0.3997	845.56	–	1.658
333.15 K, x2 = 0.4997	838.05	–	1.704
333.15 K, x2 = 0.6002	830.19	–	1.767
333.15 K, x2 = 0.7	821.88	–	1.847
333.15 K, x2 = 0.7996	813.08	–	1.938
333.15 K, x2 = 0.8999	803.64	–	2.044

From the NIST ThermoML archive (doi:10.1021/je500381c)
